Test results from patent US20200039930A1, “PROLINE AMIDE COMPOUNDS AND THEIR AZETIDINE ANALOGUES CARRYING A SPECIFICALLY SUBSTITUTED BENZYL RADICAL” (AbbVie Deutschland GmbH & Co. KG, priority 2017, published 2020).

Tests used:
[1] = biological target: T1, 5-HT2C receptor (Homo sapiens, UniProt P28335); assay: Human 5-HT2C functional assay (beta-arrestin2 recruitment, U2OS_HTR2C_β-Arrestin cells); format: cell-based; conditions: compounds used as acid addition salts; for EC50: U2OS_HTR2C_β-Arrestin cells, 1.5 h incubation, read-out: EC50 5-HT2C (potency in functional assay); for Emax: relative efficacy vs response to 10 µM 5-HT or maximal effect of 5-HT (100%)
T1 construct: host or cells: U2OS
Procedure: The functional activity of compounds of formula I was assayed by incubation with U2OS_HTR2C_β-Arrestin cells (DiscoverX, 93-0289C3) to induce beta-arrestin2 recruitment to the 5-HT2C receptor. The agonist-induced recruitment and proximity of the receptor and beta-arrestin2 leads to complementation and formation of active β-galactosidase. The enzyme complementation results in enzyme activity, which is measured following the termination of the agonist incubation using DiscoveRx's detection reagent, which contains a chemiluminescent substrate which produces a high intensity signal. Cells were plated and a medium-change to a 1% serum containing medium was performed 24 h later. The next day, test compounds were added and incubated for 1.5 h before addition of detection reagent.
The response produced was measured and compared with the response produced by 10 [mu]M 5-HT or the maximal effect induced by 5-HT (defined as 100%) to which it was expressed as a percentage response (relative efficacy). Dose response curves were con-structed using Graphpad Prism (Graph Software Inc.) or using in house adapted software using a 4 parameter dose response model with variable slope (fit=(Bottom+(Top−Bottom)/(1+10^((LogEC50−x)*Hill Slope))res=(y−fit)). Results are compiled in the table below.

[2] = Metabolic stability: unbound intrinsic clearance in liver microsomes; format: in vitro ADME; conditions: rat; liver microsomes 0.25 mg protein/mL, 0.5 μM compound, pH 7.4, 37° C.; Cl int unbound=Cl int/fu mic; compounds used as acid addition salts; read-out: Cl int, mic unb. (r) (unbound intrinsic clearance)
Procedure: Samples of the tested compounds (0.5 μM) were preincubated together with rat liver microsomes (0.25 mg of microsomal protein/mL) in 0.05 M potassium phosphate buffer of pH 7.4 in microtiter plates at 37° C. for 5 minutes. The reaction was started by adding NADPH (1.0 mM). After 0, 5, 10, 15, 20 and 30 minutes, an aliquot was removed, the reaction was cooled and stopped by adding twice the amount of quench solution consisting of acetonitrile/methanol 1:1, and containing […] carbutamide as internal standard. The samples were frozen until analyzed. The remaining concentration of undegraded test substance was determined by liquid chromatography-tandem mass spectrometry (LC-MS/MS). The half-life (t1/2) was determined from the gradient of the ratio of the signal of (test substance/internal standard)/unit time plot, allowing the calculation of the half-life of the test substance, assuming first order kinetics, from the decrease in the concentration of the compound with time. The microsomal clearance (mClint) was calculated as follows: mClint=((ln(2)/t 1/2)/Microsomal Protein Concentration (mg/ml))*1000, leading to the unit of uL/min/mg. The scaled clearance (mClin_scaled) was calculated as mCLint_scaled=m CLint*(Microsomal Yield (mg/kg BW))/1000000*60, leading to the units L/h/kg. The Microsomal Yield is defined by the specifics of the used microsomes. Calculations were modified from refer-ences: Di, The Society for Biomolecular Screening, 2003, 453-462; Obach, D M D, 1999 vol 27. N 11, 1350-1359.
A suspension of 0.25 mg/ml microsomal protein spiked with 0.5 μM of test compound was pipetted on one side of a HTDialysis device (HTDialysis LLC,37 Ledgewood Drive, Gales Fery Conn. 06335) separated by a membrane with a MWcut off 12-14 K. 50 mM K-Phosphate buffer (pH 7.4) was added on the other side of the well. After incubation at 37° C. for 4 h while shaking at 150 rpm, aliquots of both sides were taken, quenched with MeOH/ACN 1:1 and 0.2 μM of internal standard and frozen until analy-sis by LCMSMS.
Cl int unbound=Cl int/fu mic
The compounds were used in form of their respective acid addition salts.

T1 sequence (P28335 33-458): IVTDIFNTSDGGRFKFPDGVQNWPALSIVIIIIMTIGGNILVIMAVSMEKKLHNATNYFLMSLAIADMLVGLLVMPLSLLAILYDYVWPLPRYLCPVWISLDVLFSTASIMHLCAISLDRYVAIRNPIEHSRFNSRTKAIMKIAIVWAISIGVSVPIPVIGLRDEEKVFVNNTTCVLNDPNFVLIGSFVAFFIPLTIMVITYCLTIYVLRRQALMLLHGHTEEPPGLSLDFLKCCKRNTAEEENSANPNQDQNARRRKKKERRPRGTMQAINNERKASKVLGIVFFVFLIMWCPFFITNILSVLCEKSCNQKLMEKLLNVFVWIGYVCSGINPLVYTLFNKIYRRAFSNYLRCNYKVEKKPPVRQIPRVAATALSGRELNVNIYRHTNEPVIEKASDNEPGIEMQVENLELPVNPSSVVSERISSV
T1 sequence (P32121 whole entry partner): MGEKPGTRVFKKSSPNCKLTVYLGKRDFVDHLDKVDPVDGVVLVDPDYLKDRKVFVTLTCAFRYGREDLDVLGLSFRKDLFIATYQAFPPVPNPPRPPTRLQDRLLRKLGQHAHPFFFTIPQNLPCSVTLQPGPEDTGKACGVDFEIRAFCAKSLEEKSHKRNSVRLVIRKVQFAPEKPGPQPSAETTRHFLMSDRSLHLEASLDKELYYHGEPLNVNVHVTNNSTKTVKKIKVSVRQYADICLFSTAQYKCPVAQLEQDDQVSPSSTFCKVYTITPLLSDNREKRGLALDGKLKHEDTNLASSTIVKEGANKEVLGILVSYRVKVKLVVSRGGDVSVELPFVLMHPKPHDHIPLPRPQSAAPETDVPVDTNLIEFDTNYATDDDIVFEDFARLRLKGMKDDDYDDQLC

SMILES | EC50 [1] | Emax [1] | CLint scaled at 0.5 μM [2]
COc1cc(OCCC(F)(F)C(F)(F)F)c(F)cc1CNC(=O)[C@@H]1CCCN1 [Example 24, (2S)—N-[[5-Fluoro-2-methoxy-4-(3,3,4,4,4-pentafluorobutoxy)phenyl]methyl]-pyrrolidine-2-carboxamide] | 5 to 15 nM | > 70% | < 500 mL/min/kg
COc1cc(OCC(C)CC(F)(F)F)c(F)cc1CNC(=O)[C@@H]1CCCN1 (stereo partly drawn) [Example 25, (2S)—N-[[5-Fluoro-2-methoxy-4-(4,4,4-trifluoro-2-methyl-butoxy)phenyl]methyl]-pyrrolidine-2-carboxamide] | < 5 nM | > 70% | 500 to 1330 mL/min/kg
COc1cc(OCC2(C(F)(F)F)CC2)c(F)cc1CNC(=O)[C@@H]1CCCN1 [Example 27, (2S)—N-[[5-Fluoro-2-methoxy-4-[[1-(trifluoromethyl)cyclopropyl]methoxy]phenyl]-methyl]pyrrolidine-2-carboxamide] | 5 to 15 nM | > 70% | 500 to 1330 mL/min/kg
COc1cc(OC2CC(F)(F)C2)c(F)cc1CNC(=O)[C@@H]1CCCN1 [Example 28, (2S)—N-[[4-(3,3-Difluorocyclobutoxy)-5-fluoro-2-methoxy-phenyl]methyl]-pyrrolidine-2-carboxamide] | 5 to 15 nM | > 70% | < 500 mL/min/kg
COc1cc(OCC2CC(F)(F)C2(F)F)c(F)cc1CNC(=O)[C@@H]1CCCN1 (stereo partly drawn) [Example 30, (2S)—N-[[5-Fluoro-2-methoxy-4-[(2,2,3,3-tetrafluorocyclobutyl)methoxy]phenyl]-methyl]pyrrolidine-2-carboxamide] | < 5 nM | > 70% | < 500 mL/min/kg
COc1cc(OCC2CCC(F)(F)C2)c(F)cc1CNC(=O)[C@@H]1CCCN1 (stereo partly drawn) [Example 31, (2S)—N-[[4-[(3,3-Difluorocyclopentyl)methoxy]-5-fluoro-2-methoxy-phenyl]methyl]-pyrrolidine-2-carboxamide] | 5 to 15 nM | > 70% | < 500 mL/min/kg
COc1cc(O[C@H]2CC[C@H](C(F)(F)F)CC2)c(F)cc1CNC(=O)[C@@H]1CCCN1 [Example 33, (S)—N-(5-Fluoro-4-((trans-4-trifluoromethyl-cyclohexyl)oxy)-2-methoxybenzyl)-pyrrolidine-2-carboxamide] | < 5 nM | > 70% | < 500 mL/min/kg
COc1cc(OC2CC(F)(F)C2)c(F)cc1CNC(=O)[C@@H]1CCCN1C [Example 37, (2S)—N-[[4-(3,3-Difluorocyclobutoxy)-5-fluoro-2-methoxy-phenyl]methyl]-1-methyl-pyrrolidine-2-carboxamide] | 5 to 15 nM | > 70% | 500 to 1330 mL/min/kg
COc1cc(OCC2CCC(F)(F)C2)c(F)cc1CNC(=O)[C@@H]1CCCN1C (stereo partly drawn) [Example 38, (2S)—N-[[4-[(3,3-Difluorocyclopentyl)methoxy]-5-fluoro-2-methoxy-phenyl]methyl]-1-methyl-pyrrolidine-2-carboxamide] | 15 to 30 nM | > 70% | 1330 to 4170 mL/min/kg
COc1cc(O[C@H]2CC[C@H](C(F)(F)F)CC2)c(F)cc1CNC(=O)[C@@H]1CCN1 [Example 41, (2S)—N-[[5-Fluoro-2-methoxy-4-[trans 4-(trifluoromethyl)cyclohexoxy]phenyl]-methyl]azetidine-2-carboxamide] | < 5 nM | 50 to 70% | < 500 mL/min/kg

Second part, the molecule after the results:

EC50 [1] | Emax [1] | CLint scaled at 0.5 μM [2] | SMILES
15 to 30 nM | > 70% | < 500 mL/min/kg | COc1cc(OCC2CC2(F)F)c(F)cc1CNC(=O)[C@@H]1CCCN1 (stereo partly drawn) [Example 26, (2S)—N-[[4-[(2,2-Difluorocyclopropyl)methoxy]-5-fluoro-2-methoxy-phenyl]-methyl]pyrrolidine-2-carboxamide]
5 to 15 nM | > 70% | < 500 mL/min/kg | COc1cc(OCC2CC(F)(F)C2)c(F)cc1CNC(=O)[C@@H]1CCCN1 [Example 29, (2S)—N-[[4-[(3,3-Difluorocyclobutyl)methoxy]-5-fluoro-2-methoxy-phenyl]methyl]-pyrrolidine-2-carboxamide]
5 to 15 nM | > 70% | < 500 mL/min/kg | COc1cc(OCC2CCC(F)(F)CC2)c(F)cc1CNC(=O)[C@@H]1CCCN1 [Example 32, (2S)—N-[[4-[(4,4-Difluorocyclohexyl)methoxy]-5-fluoro-2-methoxy-phenyl]methyl]-pyrrolidine-2-carboxamide]
5 to 15 nM | > 70% | 1330 to 4170 mL/min/kg | COc1cc(O[C@H]2CC[C@@H](C(F)(F)F)CC2)c(F)cc1CNC(=O)[C@@H]1CCCN1 [Example 34, (S)—N-(5-Fluoro-4-((cis-4-trifluoromethyl-cyclohexyl)oxy)-2-methoxybenzyl)-pyrrolidine-2-carboxamide]
< 5 nM | > 70% | 500 to 1330 mL/min/kg | COc1cc(OC2CCCC(C(F)(F)F)C2)c(F)cc1CNC(=O)[C@@H]1CCCN1 (stereo partly drawn) [Example 35, (2S)—N-[[5-Fluoro-2-methoxy-4-[3-(trifluoromethyl)cyclohexoxy]phenyl]methyl]-pyrrolidine-2-carboxamide]
15 to 30 nM | > 70% | 500 to 1330 mL/min/kg | COc1cc(OCC(F)(F)C(F)F)c(F)cc1CNC(=O)[C@@H]1CCCN1C [Example 36, (2S)—N-[[5-Fluoro-2-methoxy-4-(2,2,3,3-tetrafluoropropoxy)phenyl]methyl]-1-methyl-pyrrolidine-2-carboxamide]
15 to 30 nM | > 70% | 500 to 1330 mL/min/kg | COc1cc(O[C@H]2CC[C@H](C(F)(F)F)CC2)c(F)cc1CNC(=O)[C@@H]1CCCN1C [Example 39, (2S)—N-(5-Fluoro-2-methoxy-4-((trans-4-(trifluoromethyl)cyclohexyl)oxy)benzyl)-1-methyl-pyrrolidine-2-carboxamide]
15 to 30 nM | > 70% | 500 to 1330 mL/min/kg | COc1cc(OC2CCC(F)(F)CC2)c(F)cc1CNC(=O)[C@@H]1CCCN1C [Example 40, (2S)—N-[[4-(4,4-Difluorocyclohexoxy)-5-fluoro-2-methoxy-phenyl]methyl]-1-methyl-pyrrolidine-2-carboxamide]
< 5 nM | > 70% | < 500 mL/min/kg | [2H]C1([2H])NC([2H])(C(=O)NCc2cc(F)c(OC3CCC(C(F)(F)F)CC3)cc2OC)C([2H])([2H])C1([2H])[2H] (stereo not drawn) [Example 42, 2,3,3,4,4,5,5-Heptadeuterio-N-[[5-fluoro-2-methoxy-4-[4-(trifluoromethyl)cyclohexoxy]phenyl]methyl]pyrrolidine-2-carboxamide]
15 to 30 nM | > 70% | < 500 mL/min/kg | COc1cc(OC2CCC(CF)CC2)c(F)cc1CNC(=O)[C@@H]1CCCN1 (stereo partly drawn) [Example 43, (2S)—N-[[5-Fluoro-4-[4-(fluoromethyl)cyclohexoxy]-2-methoxy-phenyl]methyl]-pyrrolidine-2-carboxamide]
